# In ChEMBL document CHEMBL4507286 (2021):
# Legend:
# [1] = target: Serine/threonine-protein kinase 24 (Homo sapiens) (UniProt Q9Y6E0)
# [2] = target: Bone morphogenetic protein receptor type-2 (Homo sapiens) (UniProt Q13873)
# [3] = target: Mitogen-activated protein kinase kinase kinase 12 (Homo sapiens) (UniProt Q12852)
# [4] = target: RAC-gamma serine/threonine-protein kinase (Homo sapiens) (UniProt Q9Y243)
# [5] = target: Activin receptor type-1 (Homo sapiens) (UniProt Q04771)
# [6] = target: Serine/threonine-protein kinase OSR1 (Homo sapiens) (UniProt O95747)
# [7] = target: Non-receptor tyrosine-protein kinase TYK2 (Homo sapiens) (UniProt P29597)
# [8] = target: TGF-beta receptor type-2 (Homo sapiens) (UniProt P37173)
# [9] = target: G protein-coupled receptor kinase 4 (Homo sapiens) (UniProt P32298)
# [10] = target: Receptor tyrosine-protein kinase erbB-4 (Homo sapiens) (UniProt Q15303)
# [11] = system: Tyrosine-protein kinase ABL1 (Homo sapiens), P00519 [H396P]
# [12] = target: D(4) dopamine receptor (Homo sapiens) (UniProt P21917); conditions: Compound concentration 10.0 uM
# [13] = target: Mitogen-activated protein kinase kinase kinase 20 (Homo sapiens) (UniProt Q9NYL2)
# [14] = target: Mitogen-activated protein kinase kinase kinase 11 (Homo sapiens) (UniProt Q16584)
# Mitogen-activated protein kinase kinase kinase 11 (Homo sapiens), sequence (Q16584 whole entry, looked up, the tested form may be a part): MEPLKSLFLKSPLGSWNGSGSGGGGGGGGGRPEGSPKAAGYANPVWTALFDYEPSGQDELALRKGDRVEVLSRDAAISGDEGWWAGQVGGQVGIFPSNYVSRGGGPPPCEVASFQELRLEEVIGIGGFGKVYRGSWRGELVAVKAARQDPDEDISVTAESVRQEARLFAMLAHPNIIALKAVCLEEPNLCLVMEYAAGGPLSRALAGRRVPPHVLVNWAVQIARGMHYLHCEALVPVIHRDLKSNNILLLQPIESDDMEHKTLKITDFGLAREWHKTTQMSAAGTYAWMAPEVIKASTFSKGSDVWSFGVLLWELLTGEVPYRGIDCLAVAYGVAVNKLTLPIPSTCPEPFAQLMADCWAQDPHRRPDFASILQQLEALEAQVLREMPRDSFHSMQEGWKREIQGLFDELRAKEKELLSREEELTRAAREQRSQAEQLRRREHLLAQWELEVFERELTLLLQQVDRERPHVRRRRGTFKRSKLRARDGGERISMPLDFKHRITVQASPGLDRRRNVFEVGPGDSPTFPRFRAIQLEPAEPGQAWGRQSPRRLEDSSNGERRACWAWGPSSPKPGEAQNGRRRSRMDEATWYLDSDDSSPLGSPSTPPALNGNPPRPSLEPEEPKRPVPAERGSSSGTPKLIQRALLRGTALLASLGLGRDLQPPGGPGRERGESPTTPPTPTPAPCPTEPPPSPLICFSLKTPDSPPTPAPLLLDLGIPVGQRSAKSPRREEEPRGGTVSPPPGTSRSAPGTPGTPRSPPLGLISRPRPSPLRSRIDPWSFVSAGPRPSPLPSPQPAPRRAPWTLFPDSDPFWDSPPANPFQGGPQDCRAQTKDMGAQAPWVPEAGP
# [15] = target: Discoidin domain-containing receptor 2 (Homo sapiens) (UniProt Q16832)
# [16] = target: Serine/threonine-protein kinase PAK 6 (Homo sapiens) (UniProt Q9NQU5)
# [17] = target: Mitogen-activated protein kinase 9 (Homo sapiens) (UniProt P45984)
# [18] = target: Interferon-induced, double-stranded RNA-activated protein kinase (Homo sapiens) (UniProt P19525)
# [19] = target: Calcium/calmodulin-dependent protein kinase kinase 2 (Homo sapiens) (UniProt Q96RR4)
# [20] = target: Proto-oncogene tyrosine-protein kinase receptor Ret (Homo sapiens) (UniProt P07949)
# [21] = target: Dual specificity protein kinase CLK2 (Homo sapiens, UniProt P49760)
# Dual specificity protein kinase CLK2, sequence (P49760 whole entry, looked up): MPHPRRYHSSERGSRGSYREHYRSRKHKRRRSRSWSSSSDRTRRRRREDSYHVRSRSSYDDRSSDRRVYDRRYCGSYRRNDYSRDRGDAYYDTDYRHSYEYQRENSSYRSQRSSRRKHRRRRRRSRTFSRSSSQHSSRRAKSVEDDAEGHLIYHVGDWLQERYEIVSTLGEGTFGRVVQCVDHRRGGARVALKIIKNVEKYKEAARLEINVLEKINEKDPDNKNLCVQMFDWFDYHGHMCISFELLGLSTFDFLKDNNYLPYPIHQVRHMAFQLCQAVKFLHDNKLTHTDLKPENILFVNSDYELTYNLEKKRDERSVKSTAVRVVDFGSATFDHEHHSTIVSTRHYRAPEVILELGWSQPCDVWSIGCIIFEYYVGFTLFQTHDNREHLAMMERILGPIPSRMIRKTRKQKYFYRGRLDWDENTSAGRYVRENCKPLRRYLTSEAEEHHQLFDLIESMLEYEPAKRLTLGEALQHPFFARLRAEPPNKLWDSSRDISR
# [22] = target: Peripheral plasma membrane protein CASK (Homo sapiens) (UniProt O14936)
# [23] = target: MAP kinase-activated protein kinase 2 (Homo sapiens) (UniProt P49137)
# [24] = target: SNF-related serine/threonine-protein kinase (Homo sapiens) (UniProt Q9NRH2)
# [25] = target: Myosin light chain kinase (Homo sapiens) (UniProt Q32MK0)
# [26] = target: Dual specificity mitogen-activated protein kinase kinase 2 (Homo sapiens) (UniProt P36507)
# [27] = target: Homeodomain-interacting protein kinase 1 (Homo sapiens) (UniProt Q86Z02)
# [28] = target: Rho-associated protein kinase 2 (Homo sapiens) (UniProt O75116)
# [29] = target: Mitogen-activated protein kinase 4 (Homo sapiens) (UniProt P31152)
# [30] = target: Serine/threonine-protein kinase Nek2 (Homo sapiens) (UniProt P51955)
# [31] = target: Mitogen-activated protein kinase kinase kinase kinase 4 (Homo sapiens) (UniProt O95819)
# Mitogen-activated protein kinase kinase kinase kinase 4 (Homo sapiens), sequence (O95819 2-1239 limits assumed): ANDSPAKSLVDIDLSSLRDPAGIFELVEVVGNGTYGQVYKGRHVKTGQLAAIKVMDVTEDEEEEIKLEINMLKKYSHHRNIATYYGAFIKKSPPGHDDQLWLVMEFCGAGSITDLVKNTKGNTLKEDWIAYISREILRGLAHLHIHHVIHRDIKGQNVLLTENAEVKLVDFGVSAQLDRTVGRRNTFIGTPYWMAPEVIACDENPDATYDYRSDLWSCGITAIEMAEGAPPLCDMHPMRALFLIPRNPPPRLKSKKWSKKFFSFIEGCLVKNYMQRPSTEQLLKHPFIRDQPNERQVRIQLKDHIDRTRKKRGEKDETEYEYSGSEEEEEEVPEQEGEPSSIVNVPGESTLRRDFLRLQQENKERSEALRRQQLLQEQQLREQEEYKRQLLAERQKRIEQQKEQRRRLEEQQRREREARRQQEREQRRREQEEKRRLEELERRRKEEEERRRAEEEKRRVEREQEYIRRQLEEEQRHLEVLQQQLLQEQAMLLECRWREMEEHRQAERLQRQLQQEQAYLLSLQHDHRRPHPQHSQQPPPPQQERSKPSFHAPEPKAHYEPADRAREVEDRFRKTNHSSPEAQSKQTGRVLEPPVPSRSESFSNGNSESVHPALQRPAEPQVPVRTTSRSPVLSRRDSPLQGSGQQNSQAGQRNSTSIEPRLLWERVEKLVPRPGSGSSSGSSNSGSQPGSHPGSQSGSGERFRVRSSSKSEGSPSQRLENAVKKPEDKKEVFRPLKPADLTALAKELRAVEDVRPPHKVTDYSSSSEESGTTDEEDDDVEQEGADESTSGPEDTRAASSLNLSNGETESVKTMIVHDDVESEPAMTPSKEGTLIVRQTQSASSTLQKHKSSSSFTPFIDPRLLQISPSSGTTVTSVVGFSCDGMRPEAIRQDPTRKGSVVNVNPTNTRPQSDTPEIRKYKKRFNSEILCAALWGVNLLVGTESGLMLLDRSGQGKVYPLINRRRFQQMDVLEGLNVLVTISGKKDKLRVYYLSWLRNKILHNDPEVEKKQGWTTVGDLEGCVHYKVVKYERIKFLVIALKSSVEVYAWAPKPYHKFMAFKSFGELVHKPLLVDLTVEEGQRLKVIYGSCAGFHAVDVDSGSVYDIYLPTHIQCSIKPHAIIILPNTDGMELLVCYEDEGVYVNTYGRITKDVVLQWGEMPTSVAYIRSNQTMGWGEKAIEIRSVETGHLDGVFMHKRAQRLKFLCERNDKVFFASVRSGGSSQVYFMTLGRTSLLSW
# [32] = target: Mitotic checkpoint serine/threonine-protein kinase BUB1 (Homo sapiens) (UniProt O43683)
# [33] = target: Homeodomain-interacting protein kinase 2 (Homo sapiens) (UniProt Q9H2X6)
# [34] = system: Epidermal growth factor receptor (Homo sapiens), P00533 [UNDEFINED MUTATION]
# [35] = target: Serine/threonine-protein kinase 26 (Homo sapiens, UniProt Q9P289)
# [36] = target: Ribosomal protein S6 kinase alpha-5 (Homo sapiens) (UniProt O75582)
# Ribosomal protein S6 kinase alpha-5 (Homo sapiens), sequence (O75582 whole entry, looked up): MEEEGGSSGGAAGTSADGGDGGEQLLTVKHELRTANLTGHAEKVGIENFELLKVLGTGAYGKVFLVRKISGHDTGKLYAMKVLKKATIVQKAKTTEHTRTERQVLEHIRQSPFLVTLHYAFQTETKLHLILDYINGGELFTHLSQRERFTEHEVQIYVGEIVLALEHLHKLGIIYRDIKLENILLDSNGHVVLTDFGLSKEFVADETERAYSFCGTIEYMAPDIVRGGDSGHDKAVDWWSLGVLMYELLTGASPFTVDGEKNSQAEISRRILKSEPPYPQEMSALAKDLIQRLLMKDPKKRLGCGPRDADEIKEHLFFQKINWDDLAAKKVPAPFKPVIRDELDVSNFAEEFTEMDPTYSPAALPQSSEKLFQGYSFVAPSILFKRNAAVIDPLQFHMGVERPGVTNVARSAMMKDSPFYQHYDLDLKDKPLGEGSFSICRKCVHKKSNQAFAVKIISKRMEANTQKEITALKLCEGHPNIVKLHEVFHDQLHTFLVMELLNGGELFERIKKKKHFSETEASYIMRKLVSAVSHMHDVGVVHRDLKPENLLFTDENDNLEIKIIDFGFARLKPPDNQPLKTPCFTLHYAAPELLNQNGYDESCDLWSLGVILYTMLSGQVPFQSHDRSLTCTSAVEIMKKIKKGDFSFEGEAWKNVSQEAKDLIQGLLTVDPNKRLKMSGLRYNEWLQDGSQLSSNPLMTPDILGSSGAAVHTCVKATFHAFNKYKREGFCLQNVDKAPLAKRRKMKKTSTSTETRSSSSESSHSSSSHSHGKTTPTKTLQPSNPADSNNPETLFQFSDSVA
# [37] = target: Bone morphogenetic protein receptor type-1A (Homo sapiens) (UniProt P36894)
# [38] = target: Protein kinase C epsilon type (Homo sapiens) (UniProt Q02156)
# [39] = target: Receptor-type tyrosine-protein kinase FLT3 (Homo sapiens) (UniProt P36888)
# [40] = target: Serine/threonine-protein kinase Nek10 (Homo sapiens) (UniProt Q6ZWH5)
# [41] = target: Serine/threonine-protein kinase 17A (Homo sapiens) (UniProt Q9UEE5)
# [42] = target: SRSF protein kinase 2 (Homo sapiens) (UniProt P78362)
# [43] = target: Activin receptor type-2A (Homo sapiens) (UniProt P27037)
# [44] = target: Mitogen-activated protein kinase 14 (Homo sapiens) (UniProt Q16539)
# [45] = system: Tyrosine-protein kinase ABL1 (Homo sapiens), P00519 [F317L]
# [46] = Compound concentration 1000.0 nM
# [47] = Compound concentration 100.0 nM
# Bone morphogenetic protein receptor type-2 (Homo sapiens), sequence (Q13873 whole entry): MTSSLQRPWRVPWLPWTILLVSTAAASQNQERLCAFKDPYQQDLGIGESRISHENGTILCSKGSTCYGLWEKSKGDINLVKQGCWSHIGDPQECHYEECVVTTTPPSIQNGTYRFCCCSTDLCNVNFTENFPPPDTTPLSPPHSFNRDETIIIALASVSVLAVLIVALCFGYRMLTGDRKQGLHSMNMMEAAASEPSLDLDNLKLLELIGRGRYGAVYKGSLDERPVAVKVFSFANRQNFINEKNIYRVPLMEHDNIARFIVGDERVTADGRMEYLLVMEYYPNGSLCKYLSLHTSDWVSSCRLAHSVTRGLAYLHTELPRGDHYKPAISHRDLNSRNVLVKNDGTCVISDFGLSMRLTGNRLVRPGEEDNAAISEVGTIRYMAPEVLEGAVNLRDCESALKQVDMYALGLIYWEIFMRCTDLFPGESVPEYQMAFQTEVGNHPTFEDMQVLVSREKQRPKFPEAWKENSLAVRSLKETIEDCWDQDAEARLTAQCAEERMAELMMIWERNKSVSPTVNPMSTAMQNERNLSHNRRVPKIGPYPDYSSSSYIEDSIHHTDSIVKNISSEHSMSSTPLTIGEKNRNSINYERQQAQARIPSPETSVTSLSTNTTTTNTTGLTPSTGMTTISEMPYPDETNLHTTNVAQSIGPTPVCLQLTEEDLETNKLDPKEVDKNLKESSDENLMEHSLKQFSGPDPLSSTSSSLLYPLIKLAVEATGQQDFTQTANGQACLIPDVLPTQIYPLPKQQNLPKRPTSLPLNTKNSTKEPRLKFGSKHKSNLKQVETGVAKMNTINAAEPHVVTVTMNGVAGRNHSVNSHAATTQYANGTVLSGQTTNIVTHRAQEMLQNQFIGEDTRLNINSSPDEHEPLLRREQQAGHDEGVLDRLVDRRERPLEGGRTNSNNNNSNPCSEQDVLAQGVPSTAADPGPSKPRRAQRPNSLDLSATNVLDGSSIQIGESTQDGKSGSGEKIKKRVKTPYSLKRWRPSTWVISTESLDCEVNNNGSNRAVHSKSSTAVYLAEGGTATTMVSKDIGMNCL
# RAC-gamma serine/threonine-protein kinase (Homo sapiens), sequence (Q9Y243 whole entry): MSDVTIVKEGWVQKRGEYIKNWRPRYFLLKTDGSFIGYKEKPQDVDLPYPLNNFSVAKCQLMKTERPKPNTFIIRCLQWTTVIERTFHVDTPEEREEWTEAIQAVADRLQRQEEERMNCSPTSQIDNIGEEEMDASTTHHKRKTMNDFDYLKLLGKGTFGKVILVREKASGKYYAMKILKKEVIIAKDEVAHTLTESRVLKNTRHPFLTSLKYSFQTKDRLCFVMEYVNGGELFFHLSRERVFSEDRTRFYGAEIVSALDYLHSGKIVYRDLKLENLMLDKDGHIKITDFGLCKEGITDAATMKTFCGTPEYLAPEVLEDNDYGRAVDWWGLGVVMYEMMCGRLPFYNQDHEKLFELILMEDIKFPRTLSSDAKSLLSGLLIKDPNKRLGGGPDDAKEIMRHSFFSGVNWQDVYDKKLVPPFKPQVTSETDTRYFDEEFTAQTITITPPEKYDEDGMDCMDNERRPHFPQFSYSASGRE
smiles,measurement,setting,value
C[C@H](NC(=O)Nc1cc2[nH]ncc2c(CO)n1)c1ccccn1 [ERKi-NC],residual activity,[1]; [46],98%
same,residual activity,[2]; [46],100%
same,residual activity,[3]; [46],67.9%
same,residual activity,[4]; [46],100%
same,residual activity,[5]; [46],81.8%
same,residual activity,[6]; [46],100%
same,residual activity,[7]; [46],69.9%
same,residual activity,[8]; [46],76.1%
same,residual activity,[9]; [46],85.2%
same,residual activity,[10]; [46],100%
same,residual activity,[11]; [46],72.5%
same,inhibition,[12],16.6%
same,residual activity,[13]; [46],74.7%
same,residual activity,[14]; [46],87.7%
same,residual activity,[15]; [46],94.3%
same,residual activity,[16]; [46],100%
same,residual activity,[17]; [46],100%
same,residual activity,[18]; [46],71.8%
same,residual activity,[19]; [46],85.4%
same,residual activity,[20]; [46],100%
same,residual activity,[21]; [46],100%
same,residual activity,[22]; [46],60.8%
same,residual activity,[23]; [46],100%
same,residual activity,[24]; [46],100%
same,residual activity,[25]; [46],100%
same,residual activity,[26]; [46],90.7%
same,residual activity,[27]; [46],48.9%
same,residual activity,[28]; [46],88.4%
same,residual activity,[29]; [46],84.7%
same,residual activity,[30]; [46],96.9%
same,residual activity,[31]; [46],100%
same,residual activity,[32]; [46],100%
same,residual activity,[33]; [46],83.9%
same,residual activity,[34]; [46],100%
same,residual activity,[35]; [46],100%
same,residual activity,[36]; [46],100%
same,residual activity,[37]; [46],74.6%
same,residual activity,[38]; [46],100%
same,residual activity,[39]; [46],100%
same,residual activity,[40]; [46],53.8%
same,residual activity,[41]; [46],100%
same,residual activity,[42]; [46],100%
same,residual activity,[43]; [46],85.6%
same,residual activity,[44]; [46],100%
same,residual activity,[45]; [46],91.9%
C[C@@H](NC(=O)Nc1cc2[nH]ncc2c(CO)n1)c1ccccc1 [ERKi],residual activity,[1]; [47],100%
same,residual activity,[2]; [47],70.3%
same,residual activity,[3]; [47],97.4%
same,residual activity,[4]; [47],73.3%
same,residual activity,[5]; [47],98.3%
same,residual activity,[6]; [47],69.8%
same,residual activity,[7]; [47],94.7%
same,residual activity,[8]; [47],40.8%
same,residual activity,[9]; [47],100%
same,residual activity,[10]; [47],97.6%
same,residual activity,[11]; [47],94.6%
same,inhibition,[12],-1%
same,residual activity,[13]; [47],100%
same,residual activity,[14]; [47],100%
same,residual activity,[15]; [47],98.5%
same,residual activity,[16]; [47],63.5%
same,residual activity,[17]; [47],79.5%
same,residual activity,[18]; [47],78.1%
same,residual activity,[19]; [47],75.2%
same,residual activity,[20]; [47],92.6%
same,residual activity,[21]; [47],68.5%
same,residual activity,[22]; [47],89.7%
same,residual activity,[23]; [47],100%
same,residual activity,[24]; [47],100%
same,residual activity,[25]; [47],100%
same,residual activity,[26]; [47],84.8%
same,residual activity,[27]; [47],83.1%
same,residual activity,[28]; [47],44.7%
same,residual activity,[29]; [47],98.3%
same,residual activity,[30]; [47],100%
same,residual activity,[31]; [47],88.5%
same,residual activity,[32]; [47],96%
same,residual activity,[33]; [47],85.6%
same,residual activity,[34]; [47],94.6%
same,residual activity,[35]; [47],94.9%
same,residual activity,[36]; [47],87.8%
same,residual activity,[37]; [47],100%
same,residual activity,[38]; [47],85%
same,residual activity,[39]; [47],91.6%
same,residual activity,[40]; [47],100%
same,residual activity,[41]; [47],88%
same,residual activity,[42]; [47],61.2%
same,residual activity,[43]; [47],74.7%
same,residual activity,[44]; [47],100%
same,residual activity,[45]; [47],82.1%
